Experiments:
in vivo [1] = conditions: dog
Description: Half-life was measured in dog

in vivo [2] = conditions: dog, plasma
Description: Plasma clearance was measured in dog

physchem = conditions: octanol/water
Description: Partition coefficient (logP)

in vivo [3] = conditions: dog, po
Description: Oral bioavailability in dog

Integrin alpha-V/beta-3 = Integrin alpha-V/beta-3 (Homo sapiens, UniProt P05106+P06756)
Sequence of Integrin alpha-V/beta-3 (P05106 27-788 limits assumed): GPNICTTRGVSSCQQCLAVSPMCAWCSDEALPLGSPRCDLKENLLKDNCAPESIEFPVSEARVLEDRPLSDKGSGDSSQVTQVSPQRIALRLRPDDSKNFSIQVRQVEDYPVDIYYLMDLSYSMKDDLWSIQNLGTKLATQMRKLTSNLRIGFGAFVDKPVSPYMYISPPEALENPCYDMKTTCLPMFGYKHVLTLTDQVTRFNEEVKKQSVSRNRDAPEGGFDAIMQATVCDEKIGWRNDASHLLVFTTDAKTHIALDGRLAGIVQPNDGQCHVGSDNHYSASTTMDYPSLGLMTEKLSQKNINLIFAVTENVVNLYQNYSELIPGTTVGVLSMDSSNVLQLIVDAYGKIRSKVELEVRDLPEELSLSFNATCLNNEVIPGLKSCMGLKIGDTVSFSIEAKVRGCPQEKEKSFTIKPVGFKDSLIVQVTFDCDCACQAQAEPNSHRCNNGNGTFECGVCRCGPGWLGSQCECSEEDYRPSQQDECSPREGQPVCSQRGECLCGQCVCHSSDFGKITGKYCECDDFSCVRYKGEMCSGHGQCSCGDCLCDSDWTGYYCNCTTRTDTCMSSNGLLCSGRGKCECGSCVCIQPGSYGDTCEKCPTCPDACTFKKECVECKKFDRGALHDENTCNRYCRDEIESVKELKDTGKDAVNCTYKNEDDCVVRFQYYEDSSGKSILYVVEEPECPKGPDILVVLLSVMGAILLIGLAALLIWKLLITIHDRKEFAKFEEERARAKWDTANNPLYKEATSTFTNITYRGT
Sequence of Integrin alpha-V/beta-3 (P06756 31-889 limits assumed): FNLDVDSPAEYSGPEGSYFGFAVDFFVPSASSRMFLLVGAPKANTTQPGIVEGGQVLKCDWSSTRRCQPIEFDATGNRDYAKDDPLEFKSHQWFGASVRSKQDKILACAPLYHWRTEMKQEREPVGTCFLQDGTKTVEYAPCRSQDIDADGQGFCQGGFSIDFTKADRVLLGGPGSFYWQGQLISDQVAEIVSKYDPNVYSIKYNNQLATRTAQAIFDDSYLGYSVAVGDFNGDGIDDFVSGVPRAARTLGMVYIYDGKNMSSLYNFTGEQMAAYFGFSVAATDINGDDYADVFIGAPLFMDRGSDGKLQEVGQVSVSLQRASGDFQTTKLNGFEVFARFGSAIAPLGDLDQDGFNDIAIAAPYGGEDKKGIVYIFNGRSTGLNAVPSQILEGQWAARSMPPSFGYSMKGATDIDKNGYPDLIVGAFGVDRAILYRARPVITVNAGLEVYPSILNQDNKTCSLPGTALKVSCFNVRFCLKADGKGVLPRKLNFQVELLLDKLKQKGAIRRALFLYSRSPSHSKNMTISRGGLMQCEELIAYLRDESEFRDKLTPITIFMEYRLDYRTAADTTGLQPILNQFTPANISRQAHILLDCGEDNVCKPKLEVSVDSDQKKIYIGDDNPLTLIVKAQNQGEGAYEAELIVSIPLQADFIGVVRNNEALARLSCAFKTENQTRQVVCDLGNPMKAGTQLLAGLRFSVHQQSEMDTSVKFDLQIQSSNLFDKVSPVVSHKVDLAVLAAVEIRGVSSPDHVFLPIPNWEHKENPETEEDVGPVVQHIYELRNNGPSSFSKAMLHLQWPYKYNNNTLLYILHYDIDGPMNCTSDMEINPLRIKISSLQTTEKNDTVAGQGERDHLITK
Sequence of Integrin alpha-V/beta-3 (P06756 891-1048 limits assumed): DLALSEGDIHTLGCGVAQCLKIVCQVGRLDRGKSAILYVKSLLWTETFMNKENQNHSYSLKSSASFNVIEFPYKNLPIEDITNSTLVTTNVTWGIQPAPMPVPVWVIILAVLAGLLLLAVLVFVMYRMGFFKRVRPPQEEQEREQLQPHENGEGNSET
Description: Displacement of [125I]-labeled nonpeptide from purified recombinant human alphaV-beta3 integrin

half-life (in vivo [1]) [h]	clearance (in vivo [2]) [mL/min/kg]	logP (physchem)	bioavailability (in vivo [3]) [%]	IC50 (Integrin alpha-V/beta-3) [nM]	Structure (SMILES)
8	2.1	0.88	52	0.39	O=C(O)C[C@@H](c1ccc2c(c1)OCC2)N1CC[C@@H](CCCc2ccc3c(n2)NCCC3)C1=O
1.5	22.9	-0.12	11.5	0.22	O=C(O)C[C@@H](c1ccc2c(c1)OCC2)N1CC[C@H](CCCc2ccc3c(n2)NCCC3)C1=O
–	–	0.77	–	–	O=C(O)C[C@H](NC(=O)CCCCc1ccc2c(n1)NCCC2)c1cnc2ccccc2c1

Source: ChEMBL document CHEMBL1136469, “Non-peptide alpha(v)beta(3) antagonists: identification of potent, chain-shortened RGD mimetics that incorporate a central pyrrolidinone constraint” (Bioorg Med Chem Lett, 2003)
